Data taken from paper PMC4795541, “A Rapid and Quantitative Flow Cytometry Method for the Analysis of Membrane Disruptive Antimicrobial Activity” (PLoS ONE, 2016).
In brackets after ≈: the same amount, converted by molar mass. Read-outs that look alike come from different tables or passages of the source. Marks after values point to notes of the source that are not given here. Where no end group is shown, it is not given here.

Experiments:
[1] = tested on: F. nucleatum ATCC 25586
Excerpt: (§1) The bacterial strains; Fusobacterium nucleatum ATCC 25586, Streptococcus mutans Ingbritt, Staphylococcus aureus (MSSA) ATCC 29213; Staphylococcus aureus (MRSA) ATCC 43300; Enterococcus faecalis ATCC 29212; Enterobacter aerogenes ATCC 13048; Pseudomonas aeruginosa strain PAO1-LAC, ATCC 47085; Klebsiella pneumoniae ATCC 13883; Acinetobacter baumannii strain 2208, ATCC 19606; Escherichia coli ATCC 25922 lyophilised or glycerol stocks were obtained from the culture collection of the Oral Health Cooperative Research Centre, The Melbourne Dental School, University of Melbourne, Australia. These strains were selected for this study as they are widely used in antimicrobial studies and are considered to be important pathogens and major targets for antibiotic resistant studies. Bacteria were grown aerobically and maintained by passage at ambient temperature (E. coli, K. pneumoniae, A. baumannii and S. aureus strains) or at 37°C (P. aeruginosa, E. faecalis and E. aerogenes) on horse blood agar (10% v/v defibrinated horse blood, 4.4% w/v Oxoid Blood Agar Base No. 2). S. mutans and F. nucleatum were grown anaerobically (MK3 anaerobic workstation, Don Whitley Scientific Limited, England) and maintained by passage at 37°C on Todd Hewitt agar (3.6% w/v Oxoid Todd-Hewitt Broth, 1.5% w/v sucrose, 1.5% w/v BactoTM Agar, 0.8% w/v Oxoid Yeast Extract) or horse blood agar, respectively. For the antimicrobial peptide assays a 20 mL starter culture was produced by taking single colonies from blood or Todd Hewitt agar plates, respectively, to inoculate either: Luria Broth (LB; 1% w/v BactoTM Tryptone, 1% w/v NaCl, 0.5% w/v Oxoid Yeast Extract, pH 7.5, Thermo Scientific Pty, Ltd, Sydney, Australia) for bacteria; E. coli, K. pneumoniae, P. aeruginosa, A. baumannii, E. faecalis, E. aerogenes and S. aureus which were grown aerobically at 37°C, or Todd Hewitt broth (3.6% w/v Oxoid Todd-Hewitt Broth, 1.5% w/v sucrose, 0.8% w/v Oxoid Yeast 9 Extract) for S. mutans, or Brain Heart Infusion broth (BHI; 3.7% w/v Oxoid BHI, 0.05% w/v L-cysteine) for F. nucleatum which were both grown anaerobically at 37°C. After overnight incubation, 0.5–2.0 mL of the starter culture was used to inoculate the appropriate fresh broth (200 mL) and growth monitored at 650 nm using a spectrophotometer (model 275E; Perkin-Elmer, Sydney, Australia) with culture purity checked by microscopic examination and culture. Bacteria were harvested during late exponential growth phase and viability and bacteria/mL determined using a BacLight viability kit (Invitrogen, Sydney, Australia) and a Quanta SC-MPL flow cytometer (Beckman coulter Pty, Ltd, Sydney, Australia).
(§2) Antibacterial assays were undertaken to determinate the minimum inhibitory concentration (MIC), minimum bactericidal concentration (MBC) and minimum membrane disruptive concentration (MDC) of each of the antimicrobial peptides (AMP) and AMP analogues (S1 Table). For each bacterim a stock solution (2.5 × 10^6 cells/mL) in the respective media was made and an aliquot incubated with AMPs within 15 minutes from viable cell count and stock preparation. All AMPs were dissolved in DMSO and a 500 μM stock solution prepared by adding the respective media and serial dilutions (250–0.244 μM) of the AMP in media (100 μL/well) made just prior addition of bacteria. […] One hundred microliter aliquots of the bacterial stock solution (2.5 × 10^5 cells/well) were added to the AMP serial dilutions and incubated at 37°C for 90 min. Assay preparation and incubations were conducted in aerobic or anaerobic conditions dependent on the bacteria. Bacteria were also incubated in the absence of AMP to serve as a growth control for the assay. After the 90 minute incubation period the antimicrobial activity (MIC, MBC and MDC) was determined as follows;
(§3) For MIC the CLSI broth microdilution assay was followed as we have previously described.

[2] = tested on: S. mutans Ingbritt
Excerpt: as §1, §2, §3

[3] = tested on: F. nucleatum ATCC 25586; remark: listed apart in the source
Excerpt: as §1, §2
(§4) For determination of MBC, the CLSI protocol was followed, with the modifications being that due to the rapid action of the AMPs the assay incubation time was shortened from 16–20 hours to 90 minutes.

[4] = tested on: S. mutans Ingbritt; remark: listed apart in the source
Excerpt: as §1, §2, §4

[5] = tested on: sheep red blood cells; experiment: Hemolysis assay; format: cell-based
Method: Fresh sheep red blood cells in Alsever’s solution (RBCs, Equicell, Victoria, Australia) were diluted 1 in 20 in PBS (pH 7.4), pelleted by centrifugation, and washed three times in PBS (1000 g, 10 min). The RBCs were counted using a cell counter (Coulter Particle Counter Z series, Beckman Coulter) and diluted to a final concentration of 2 × 10^7 cells/mL. […] Following incubation, the RBCs were pelleted centrifuged (1000 g, 10 min) and the amount of haemoglobin in 100 μL aliquots determined by measuring the absorbance at 405 nm using a microplate reader (PerkinElmer 1420 Multilabel Counter VICTOR3). Positive and negative controls for hemolysis were taken as RBC lysed with 0.5% Triton X-100 (1:1 v/v) and RBC suspension in PBS, respectively. The percentage of hemolysis was calculated using the following formula: % Hemolysis = [(A405 test sample—A405 negative control) / (A405 positive control—A405 negative control)] × 100
The percentage hemolysis was plotted against peptide concentration and linear regression analysis was used to determine the hemolytic concentration needed to lyse 50% (HC50) of RBCs.

[6] = tested on: HEK-293 (ATCC CRL-1573) cells; experiment: Inhibition of cell proliferation assay (MTS); format: cell-based
Method: After 28 h, 20 μL of 3-(4,5-dimethylthiazol-2-yl)-5-(3-carboxymethoxyphenyl)-2-(4-sulfophenyl)-2H-tetrazolium (MTS) solution (CellTiter 96 AQueous Non-Radioactive Cell Proliferation Assay kit, Promega) were added to each well and the plates were incubated for a further 1–2 h at 37°C, 5% CO2 incubator. Cell proliferation was determined by measuring absorbance at 490 nm using a microplate reader (PerkinElmer 1420 Multilabel Counter VICTOR3). Positive and negative controls for inhibition were taken as HEK-293 cells incubated with mytomycin C (5 μg/mL, Sigma Pty Ltd) and HEK-293 cells incubated in media alone, respectively. The percentage of inhibition was calculated using the following formula: % Inhibition = [(A490 test sample—A490 negative control) / (A490 positive control—A490 negative control)] × 100
The percentage of inhibition was plotted against peptide concentration and linear regression analysis was used to determine the AMP concentration needed to inhibit 50% (IC50) of the HEK-293 cells.

[7] = tested on: A. baumannii strain 2208, ATCC 19606
Excerpt: as §1, §2, §3

[8] = tested on: E. aerogenes ATCC 13048
Excerpt: as §1, §2, §3

[9] = tested on: E. coli ATCC 25922
Excerpt: as §1, §2, §3

[10] = tested on: E. faecalis ATCC 29212
Excerpt: as §1, §2, §3

[11] = tested on: K. pneumoniae ATCC 13883
Excerpt: as §1, §2, §3

[12] = tested on: P. aeruginosa strain PAO1-LAC, ATCC 47085
Excerpt: as §1, §2, §3

[13] = tested on: S. aureus (MRSA) ATCC 43300
Excerpt: as §1, §2, §3

[14] = tested on: S. aureus (MSSA) ATCC 29213
Excerpt: as §1, §2, §3

[15] = tested on: A. baumannii strain 2208, ATCC 19606; remark: listed apart in the source
Excerpt: as §1, §2, §4

[16] = tested on: E. aerogenes ATCC 13048; remark: listed apart in the source
Excerpt: as §1, §2, §4

[17] = tested on: E. coli ATCC 25922; remark: listed apart in the source
Excerpt: as §1, §2, §4

[18] = tested on: E. faecalis ATCC 29212; remark: listed apart in the source
Excerpt: as §1, §2, §4

[19] = tested on: K. pneumoniae ATCC 13883; remark: listed apart in the source
Excerpt: as §1, §2, §4

[20] = tested on: P. aeruginosa strain PAO1-LAC, ATCC 47085; remark: listed apart in the source
Excerpt: as §1, §2, §4

[21] = tested on: S. aureus (MRSA) ATCC 43300; remark: listed apart in the source
Excerpt: as §1, §2, §4

[22] = tested on: S. aureus (MSSA) ATCC 29213; remark: listed apart in the source
Excerpt: as §1, §2, §4

[23] = A. baumannii strain 2208, ATCC 19606, 90 min incubation, average of 3 assays ± SD
[24] = E. aerogenes ATCC 13048, 90 min incubation, average of 3 assays ± SD
[25] = E. coli ATCC 25922, 90 min incubation, average of 3 assays ± SD
[26] = E. faecalis ATCC 29212, 90 min incubation, average of 3 assays ± SD
[27] = K. pneumoniae ATCC 13883, 90 min incubation, average of 3 assays ± SD
[28] = P. aeruginosa PAO1-LAC, ATCC 47085, 90 min incubation, average of 3 assays ± SD
[29] = S. aureus (MRSA) ATCC 43300, 90 min incubation, average of 3 assays ± SD
[30] = S. aureus (MSSA) ATCC 29213, 90 min incubation, average of 3 assays ± SD

CC[C@H](C)[C@H](NC(=O)CN)C(=O)NCC(=O)N[C@@H](C)C(=O)N[C@H](C(=O)N[C@@H](CC(C)C)C(=O)N[C@@H](CCCCN)C(=O)N[C@H](C(=O)N[C@@H](CC(C)C)C(=O)N[C@H](C(=O)N[C@H](C(=O)NCC(=O)N[C@@H](CC(C)C)C(=O)N1CCC[C@H]1C(=O)N[C@@H](C)C(=O)N[C@@H](CC(C)C)C(=O)N[C@H](C(=O)N[C@@H](CO)C(=O)N[C@@H](Cc1c[nH]c2ccccc12)C(=O)N[C@H](C(=O)N[C@@H](CCCCN)C(=O)N[C@@H](CCCNC(=N)N)C(=O)N[C@@H](CCCCN)C(=O)N[C@@H](CCCNC(=N)N)C(=O)N[C@@H](CCC(N)=O)C(=O)N[C@@H](CCC(N)=O)C(N)=O)[C@@H](C)CC)[C@@H](C)CC)[C@@H](C)O)[C@@H](C)O)C(C)C)C(C)C [Melittin]
MIC ([1]; F. nucleatum ATCC 25586, 2.5 × 10^5 cells/well, 90 min peptide/bacteria incubation at 37°C, then growth at OD650, average of 3 assays ± SD): 4.4 ± 0.3 µM (≈ 12.5 µg/mL) | average MIC/MBC value ([1]; F. nucleatum, average of MIC and MBC): 4.0 µM | MIC ([2]; S. mutans Ingbritt, 90 min peptide/bacteria incubation at 37°C, then growth at OD650, average of 3 assays ± SD): 6.1 ± 0.9 µM (≈ 17.4 µg/mL) | MBC ([3]; F. nucleatum ATCC 25586, 90 min peptide/bacteria incubation, CFU on agar, ≥ 99.9% reduction, average of 3 assays ± SD): 3.8 ± 0.4 µM (≈ 10.8 µg/mL) | MBC ([4]; S. mutans Ingbritt, 90 min peptide/bacteria incubation, CFU on agar, ≥ 99.9% reduction, average of 3 assays ± SD): 4.2 ± 2.4 µM (≈ 12 µg/mL)

GIGKFLHAAKKFAKAFVAEIMNS-NH2 [Ala-Magainin]
MIC ([1]; ATCC 25586, 24 h): 0.6±0.1^c μM | MIC ([2]; Ingbritt, 24 h): 7.1±0.7^c μM | MBC ([3]; ATCC 25586): 0.4±0.1^c μM | MBC ([4]; Ingbritt): 3.4±0.5^c μM | Therapeutic Index (hemolysis) ([5]; HC50/MDC50 (F. nucleatum), given as x : 1): 24 : 1 | Hemolysis (HC50) ([5]; pH 7.4): 9.6 ± 0.9 µM | IC50 ([6]; HEK-293 cells 5×10^3, EMEM + 10% FBS, 28 h, MTS, A490, linear regression, maximum peptide concentration = 1000 µM): 5.6 ± 1.4 µM | Therapeutic Index (proliferation) ([6]; IC50/MDC50 (F. nucleatum), given as x : 1): 14.0 : 1

GLLSVLGSVAKHVLPHVVPVIAEHL-NH2 [Caerin 1.1]
MIC [7, 23]: 3.1 ± 0.4 µM | MIC [8, 24]: 40.0 ± 8.2 µM | MIC [9, 25]: 8.45±0.2^e μM | MIC [10, 26]: 27.1 ± 15.0 µM | MIC [11, 27]: 14.6 ± 5.1 µM | MIC [12, 28]: 39.3 ± 21.4 µM | MIC [13, 29]: 4.9±0.4^e μM | MIC [14, 30]: 5.5±0.2^e μM | MBC [15, 23]: 3.0 ± 1.0 µM | MBC [16, 24]: 51.1 ± 6.3 µM | MBC [17, 25]: 15.6 ± 0.4 µM | MBC [18, 26]: 17.5 ± 10.6 µM | MBC [19, 27]: 20.0 ± 7.1 µM | MBC [20, 28]: 51.4 ± 27.1 µM | MBC [21, 29]: 13.9 ± 2.4 µM | MBC [22, 30]: 9.9 ± 2.3 µM

KNLRRIIRKIIHIIKKYG [Ovispirin]
MIC ([7]; ATCC 19606, 24 h): 2.6 ± 1.1 µM | MIC ([8]; ATCC 13048, 24 h): 45.9±13.8^e μM | MIC ([9]; ATCC 25922, 24 h): 9.6 ± 3.9 µM | MIC ([10]; ATCC 29212, 24 h): 78.8 ± 40.7 µM | MIC ([1]; ATCC 25586, 24 h): 4.2 ± 2.9 µM | MIC ([11]; ATCC 13883, 24 h): 7.7±0.1^e μM | MIC ([12]; PAO1, 24 h): 90.6 ± 7.5 µM | MIC ([13]; ATCC 43300, 24 h): >250 µM | MIC ([14]; ATCC 29213, 24 h): 138.5 ± 24.5 µM | MIC ([2]; Ingbritt, 24 h): 16.5 ± 1.7 µM | MBC ([15]; ATCC 19606): 2.0 ± 1.0 µM | MBC ([16]; ATCC 13048): 135.2 ± 26.3 µM | MBC ([17]; ATCC 25922): 8.5 ± 0.7 µM | MBC ([18]; ATCC 29212): 72.4 ± 13.7 µM | MBC ([3]; ATCC 25586): 4.7 ± 3.5 µM | MBC ([19]; ATCC 13883): 21.7 ± 3.7 µM | MBC ([20]; PAO1): 95.9 ± 9.8 µM | MBC ([21]; ATCC 43300): >250 µM | MBC ([22]; ATCC 29213): 139.7 ± 25.8 µM | MBC ([4]; Ingbritt): 11.3 ± 5.3 µM
